Results reported in patent US10821115B2, “Compounds that inhibit Mcl-1 protein” (priority 2017, dated 2020).
Read-outs that look alike come from different tables or passages of the source.

Test system: human multiple myeloma cell line, OPM-2
Assay: Cell viability assay (OPM-2 10 FBS), CellTiter-Glo
Assay type: cell-based
Description: Cell viability assay (OPM-2 10 FBS)
The human multiple myeloma cell line, OPM-2, was cultured in complete growth medium containing RPMI 1640 and 10% fetal bovine serum (FBS). Cells were seeded into 384-well plates at 3000 cells/well density in complete growth medium containing 10% FBS, and incubated for 16 h with serially diluted test compounds in a 37° C. incubator with 5% CO2. Cell viability was tested using CellTiter-Glo® assay (Promega, Madison, Wis.) according to the manufacturer recommendations. Luminescence was determined using an EnVision® Multilabel plate reader 25 min after the addition of detection reagent. IC50 values were then calculated with Xlfit using a logistical 4-parameter fit model in GraphPad Prism (GraphPad Software, San Diego, Calif.) or in Genedata Screener® (Genedata, Basel, Switzerland).

[1] = read-out: OPM-2 10% FBS IC50 IP, OPM-2 cells, 10% FBS, 16 h incubation
[2] = Homo sapiens, OPM-2, 16 h, read-out: OPM-2 10% FBS IC50 IP, OPM-2 cells, 10% FBS, 16 h incubation

Structure (SMILES)	IC50 [1] [nM]	IC50 [2] [nM]
C[C@@H]1[C@@H](C)C/C=C/[C@@](O)(CN2CCN3CCOC[C@@H]3C2)[C@@H]2CC[C@H]2CN2C[C@@]3(CCCc4cc(Cl)ccc43)COc3ccc(cc32)C(=O)NS1(=O)=O [Example 193, (1S,3′R,6′R,7′S,8′E,11′S,12′R)-6-chloro-7′-((9aS)-hexahydropyrazino[2,1-c][1,4]oxazin-8(1H)-ylmethyl)-7′-hydroxy-11′,12′-dimethyl-3,4-dihydro-2H, 15′H-spiro[naphthalene-1,22′-[20]oxa[13]thia[1,14]diazatetracyclo[14.7.2.0-3,6˜.0˜19,24˜]pentacosa[8,16,18,24]tetraen]-15′-one 13′,13′-dioxide]	23	–
CO[C@@]1(CN2CCN3CCCC[C@@H]3C2)/C=C/C[C@H](C)[C@@H](C)S(=O)(=O)NC(=O)c2ccc3c(c2)N(C[C@@H]2CC[C@H]21)C[C@@]1(CCCc2cc(Cl)ccc21)CO3 [Example 197, (1S,3′R,6′R,7′S,8′E,11′S,12′R)-6-chloro-7′-methoxy-11′,12′-dimethyl-7′-((9aR)-octahydro-2H-pyrido[1,2-a]pyrazin-2-ylmethyl)-3,4-dihydro-2H,15′H-spiro[naphthalene-1,22′-[20]oxa[13]thia[1,14]diazatetracyclo [14.7.2.0~3,6~.0~19,24~]pentacosa[8,16,18,24]tetraen]-15′-one 13′,13′-dioxide]	–	129
C[C@@H]1[C@@H](C)C/C=C/[C@](O)(CN2CCN3CCOC[C@@H]3C2)[C@@H]2CC[C@H]2CN2C[C@@]3(CCCc4cc(Cl)ccc43)COc3ccc(cc32)C(=O)NS1(=O)=O [Example 213, (1 S,3′R,6′R,7′R,8′E,11′S,12′R)-6-chloro-7′-((9aS)-hexahydropyrazino[2,1-c][1,4]oxazin-8(1H)-ylmethyl)-7′-hydroxy-11′,12′-dimethyl-3,4-dihydro-2H, 15′H-spiro[naphthalene-1,22′-[20]oxa[13]thia[1,14]diazatetracyclo[14.7.2.0-3,6˜.0˜19,24˜]pentacosa[8,16,18,24]tetraen]-15′-one 13′,13′-dioxide]	400	–
CO[C@@]1(CN2CCN3CCN(C(C)=O)C[C@@H]3C2)/C=C/C[C@H](C)[C@@H](C)S(=O)(=O)NC(=O)c2ccc3c(c2)N(C[C@@H]2CC[C@H]21)C[C@@]1(CCCc2cc(Cl)ccc21)CO3 [Example 214]	84	–
CO[C@]1(CN2CCN3CCS(=O)(=O)C[C@@H]3C2)/C=C/C[C@H](C)[C@@H](C)S(=O)(=O)NC(=O)c2ccc3c(c2)N(C[C@@H]2CC[C@H]21)C[C@@]1(CCCc2cc(Cl)ccc21)CO3 [Example 215]	107	–
CO[C@]1(CN2CCN3CCN(C(C)=O)C[C@@H]3C2)/C=C/C[C@H](C)[C@@H](C)S(=O)(=O)NC(=O)c2ccc3c(c2)N(C[C@@H]2CC[C@H]21)C[C@@]1(CCCc2cc(Cl)ccc21)CO3 [Example 218]	92	–
CO[C@]1(CN2CCN3CCS(=O)(=O)C[C@@H]3C2)/C=C/C[C@H](C)[C@@H](C)S(=O)(=O)NC(=O)c2ccc3c(c2)N(C[C@@H]2CC[C@H]21)C[C@@]1(CCCc2cc(Cl)ccc21)CO3 [Example 219]	47	–
CO[C@@]1(CN2CCN3CCN(S(C)(=O)=O)C[C@@H]3C2)/C=C/C[C@H](C)[C@@H](C)S(=O)(=O)NC(=O)c2ccc3c(c2)N(C[C@@H]2CC[C@H]21)C[C@@]1(CCCc2cc(Cl)ccc21)CO3 [Example 228]	–	93.1
CO[C@@]1(CN2CCN(C3CCOCC3)CC2)/C=C/C[C@H](C)[C@@H](C)S(=O)(=O)NC(=O)c2ccc3c(c2)N(C[C@@H]2CC[C@H]21)C[C@@]1(CCCc2cc(Cl)ccc21)CO3 [Example 262, (1S,3′R,6′R,7′S,8′E,11′S,12′R)-6-chloro-7′-methoxy-11′,12′-dimethyl-7′-((4-(tetrahydro-2H-pyran-4-yl)-1-piperazinyl)methyl)-3,4-dihydro-2H,15′H-spiro[naphthalene-1,22′-[20]oxa[13]thia[1,14]diazatetracyclo [14.7.2.0~3,6~.0~19,24~]pentacosa[8,16,18,24]tetraen]-15′-one 13′,13′-dioxide]	–	89
CO[C@@]1(CN2CCC(N3CCOCC3)CC2)/C=C/C[C@H](C)[C@@H](C)S(=O)(=O)NC(=O)c2ccc3c(c2)N(C[C@@H]2CC[C@H]21)C[C@@]1(CCCc2cc(Cl)ccc21)CO3 [Example 263, (1S,3′R,6′R,7′S,8′E,11′S,12′R)-6-chloro-7′-methoxy-11′,12′-dimethyl-7′-((4-(4-morpholinyl)-1-piperidinyl)methyl)-3,4-dihydro-2H,15′H-spiro[naphthalene-1,22′-[20]oxa[13]thia[1,14]diazaetracyclo [14.7.2.0~3,6~.0~19,24~]pentacosa[8,16,18,24]tetraen]-15′-one 13′,13′-dioxide]	–	124
CO[C@@]1(CN2CCN(CC(=O)O)CC2)/C=C/C[C@H](C)[C@@H](C)S(=O)(=O)NC(=O)c2ccc3c(c2)N(C[C@@H]2CC[C@H]21)C[C@@]1(CCCc2cc(Cl)ccc21)CO3 [Example 270, (4-(((1S,3′R,6′R,7′S,8′E,11′S,12′R)-6-CHLORO-7′-METHOXY-11′,12′-DIMETHYL-13′,13′-DIOXIDO-15′-OXO-3,4-DIHYDRO-2H-SPIRO[NAPHTHALENE-1,22′-[20]OXA[13]THIA[1,14]DIAZATETRACYCLO[14.7.2.0-3,6˜.0˜19,24˜]PENT ACOSA[8,16,18,24]TETRAEN]-7′-YL)METHYL)-1-PIPERAZINYL)ACETIC ACID]	–	4860
COCC(COC)N1CCN(C[C@]2(OC)/C=C/C[C@H](C)[C@@H](C)S(=O)(=O)NC(=O)c3ccc4c(c3)N(C[C@@H]3CC[C@H]32)C[C@@]2(CCCc3cc(Cl)ccc32)CO4)CC1 [Example 287, (1S,3′R,6′R,7′S,8′E,11′S,12′R)-6-chloro-7′-methoxy-7′-((4-(2-methoxy-1-(methoxymethyl)ethyl)-1-piperazinyl)methyl)-11′,12′-dimethyl-3,4-dihydro-2H,15′H-spiro[naphthalene-1,22′-[20]oxa[13]thia[1,14]diazatetracyclo [14.7.2.0~3,6~.0~19,24~]pentacosa[8,16,18,24]tetraen]-15′-one 13′,13′-dioxide]	–	50
COCCN(CCOC)C1CCN(C[C@]2(OC)/C=C/C[C@H](C)[C@@H](C)S(=O)(=O)NC(=O)c3ccc4c(c3)N(C[C@@H]3CC[C@H]32)C[C@@]2(CCCc3cc(Cl)ccc32)CO4)CC1 [Example 308, (1S,3′R,6′R,7′S,8′E,11′S,12′R)-7′-((4-(bis(2-methoxyethyl)amino)-1-piperidinyl)methyl)-6-chloro-7′-methoxy-11′,12′-dimethyl-3,4-dihydro-2H,15′H-spiro[naphthalene-1,22′-[20]oxa[13]thia[1,14]diazatetracyclo [14.7.2.0~3,6~.0~19,24~]pentacosa[8,16,18,24]tetraen]-15′-one 13′,13′-dioxide]	–	70
CO[C@@]1(CN2CCN(CC(CO)CO)CC2)/C=C/C[C@H](C)[C@@H](C)S(=O)(=O)NC(=O)c2ccc3c(c2)N(C[C@@H]2CC[C@H]21)C[C@@]1(CCCc2cc(Cl)ccc21)CO3 [Example 310, (1S,3′R,6′R,7′S,8′E,11′S,12′R)-6-chloro-7′-((4-(3-hydroxy-2-(hydroxymethyl)propyl)-1-piperazinyl)methyl)-7′-methoxy-11′,12′-dimethyl-3,4-dihydro-2H,15′H-spiro[naphthalene-1,22′-[20]oxa[13]thia[1,14]diazatetracyclo [14.7.2.0~3,6~.0~19,24~]pentacosa[8,16,18,24]tetraen]-15′-one 13′,13′-dioxide]	–	517
CCO[C@@]1(CN2CCN(C3(C)COC3)CC2)/C=C/C[C@H](C)[C@@H](C)S(=O)(=O)NC(=O)c2ccc3c(c2)N(C[C@@H]2CC[C@H]21)C[C@@]1(CCCc2cc(Cl)ccc21)CO3 [Example 311, (1S,3′R,6′R,7′S,8′E,11′S,12′R)-6-chloro-7′-ethoxy-11′,12′-dimethyl-7′-((4-(3-methyl-3-oxetanyl)-1-piperazinyl)methyl)-3,4-dihydro-2H,15′H-spiro[naphthalene-1,22′-[20]oxa[13]thia[1,14]diazatetracyclo [14.7.2.0~3,6~.0~19,24~]pentacosa[8,16,18,24]tetraen]-15′-one 13′,13′-dioxide]	–	362
CCO[C@@]1(CN2CCC(N(CCOC)CCOC)CC2)/C=C/C[C@H](C)[C@@H](C)S(=O)(=O)NC(=O)c2ccc3c(c2)N(C[C@@H]2CC[C@H]21)C[C@@]1(CCCc2cc(Cl)ccc21)CO3 [Example 312, (1S,3′R,6′R,7′S,8′E,11′S,12′R)-7′-((4-(bis(2-methoxyethyl)amino)-1-piperidinyl)methyl)-6-chloro-7′-ethoxy-11′,12′-dimethyl-3,4-dihydro-2H,15′H-spiro[naphthalene-1,22′-[20]oxa[13]thia[1,14]diazatetracyclo [14.7.2.0~3,6~.0~19,24~]pentacosa[8,16,18,24]tetraen]-15′-one 13′,13′-dioxide]	–	408
CO[C@]1(CN2CCN(C3(C)COC3)CC2)/C=C/C[C@H](C)[C@@H](C)S(=O)(=O)NC(=O)c2ccc3c(c2)N(C[C@@H]2CC[C@H]21)C[C@@]1(CCCc2cc(Cl)ccc21)CO3 [Example 319, (1S,3′R,6′R,7′R,8′E,11′S,12′R)-6-chloro-7′-methoxy-11′,12′-dimethyl-7′-((4-(3-methyl-3-oxetanyl)-1-piperazinyl)methyl)-3,4-dihydro-2H,15′H-spiro[naphthalene-1,22′-[20]oxa[13]thia[1,14]diazatetracyclo [14.7.2.0~3,6~.0~19,24~]pentacosa[8,16,18,24]tetraen]-15′-one 13′,13′-dioxide]	–	87
